{
  "source": "ChEMBL document CHEMBL1156241",
  "about": "“Synthesis of a biologically active isomer of kotalanol, a naturally occurring glucosidase inhibitor” (Bioorg Med Chem, 2010)",
  "target": "Maltase-glucoamylase (Homo sapiens, UniProt O43451)",
  "sequence (O43451 whole entry, the tested form may be a part)": "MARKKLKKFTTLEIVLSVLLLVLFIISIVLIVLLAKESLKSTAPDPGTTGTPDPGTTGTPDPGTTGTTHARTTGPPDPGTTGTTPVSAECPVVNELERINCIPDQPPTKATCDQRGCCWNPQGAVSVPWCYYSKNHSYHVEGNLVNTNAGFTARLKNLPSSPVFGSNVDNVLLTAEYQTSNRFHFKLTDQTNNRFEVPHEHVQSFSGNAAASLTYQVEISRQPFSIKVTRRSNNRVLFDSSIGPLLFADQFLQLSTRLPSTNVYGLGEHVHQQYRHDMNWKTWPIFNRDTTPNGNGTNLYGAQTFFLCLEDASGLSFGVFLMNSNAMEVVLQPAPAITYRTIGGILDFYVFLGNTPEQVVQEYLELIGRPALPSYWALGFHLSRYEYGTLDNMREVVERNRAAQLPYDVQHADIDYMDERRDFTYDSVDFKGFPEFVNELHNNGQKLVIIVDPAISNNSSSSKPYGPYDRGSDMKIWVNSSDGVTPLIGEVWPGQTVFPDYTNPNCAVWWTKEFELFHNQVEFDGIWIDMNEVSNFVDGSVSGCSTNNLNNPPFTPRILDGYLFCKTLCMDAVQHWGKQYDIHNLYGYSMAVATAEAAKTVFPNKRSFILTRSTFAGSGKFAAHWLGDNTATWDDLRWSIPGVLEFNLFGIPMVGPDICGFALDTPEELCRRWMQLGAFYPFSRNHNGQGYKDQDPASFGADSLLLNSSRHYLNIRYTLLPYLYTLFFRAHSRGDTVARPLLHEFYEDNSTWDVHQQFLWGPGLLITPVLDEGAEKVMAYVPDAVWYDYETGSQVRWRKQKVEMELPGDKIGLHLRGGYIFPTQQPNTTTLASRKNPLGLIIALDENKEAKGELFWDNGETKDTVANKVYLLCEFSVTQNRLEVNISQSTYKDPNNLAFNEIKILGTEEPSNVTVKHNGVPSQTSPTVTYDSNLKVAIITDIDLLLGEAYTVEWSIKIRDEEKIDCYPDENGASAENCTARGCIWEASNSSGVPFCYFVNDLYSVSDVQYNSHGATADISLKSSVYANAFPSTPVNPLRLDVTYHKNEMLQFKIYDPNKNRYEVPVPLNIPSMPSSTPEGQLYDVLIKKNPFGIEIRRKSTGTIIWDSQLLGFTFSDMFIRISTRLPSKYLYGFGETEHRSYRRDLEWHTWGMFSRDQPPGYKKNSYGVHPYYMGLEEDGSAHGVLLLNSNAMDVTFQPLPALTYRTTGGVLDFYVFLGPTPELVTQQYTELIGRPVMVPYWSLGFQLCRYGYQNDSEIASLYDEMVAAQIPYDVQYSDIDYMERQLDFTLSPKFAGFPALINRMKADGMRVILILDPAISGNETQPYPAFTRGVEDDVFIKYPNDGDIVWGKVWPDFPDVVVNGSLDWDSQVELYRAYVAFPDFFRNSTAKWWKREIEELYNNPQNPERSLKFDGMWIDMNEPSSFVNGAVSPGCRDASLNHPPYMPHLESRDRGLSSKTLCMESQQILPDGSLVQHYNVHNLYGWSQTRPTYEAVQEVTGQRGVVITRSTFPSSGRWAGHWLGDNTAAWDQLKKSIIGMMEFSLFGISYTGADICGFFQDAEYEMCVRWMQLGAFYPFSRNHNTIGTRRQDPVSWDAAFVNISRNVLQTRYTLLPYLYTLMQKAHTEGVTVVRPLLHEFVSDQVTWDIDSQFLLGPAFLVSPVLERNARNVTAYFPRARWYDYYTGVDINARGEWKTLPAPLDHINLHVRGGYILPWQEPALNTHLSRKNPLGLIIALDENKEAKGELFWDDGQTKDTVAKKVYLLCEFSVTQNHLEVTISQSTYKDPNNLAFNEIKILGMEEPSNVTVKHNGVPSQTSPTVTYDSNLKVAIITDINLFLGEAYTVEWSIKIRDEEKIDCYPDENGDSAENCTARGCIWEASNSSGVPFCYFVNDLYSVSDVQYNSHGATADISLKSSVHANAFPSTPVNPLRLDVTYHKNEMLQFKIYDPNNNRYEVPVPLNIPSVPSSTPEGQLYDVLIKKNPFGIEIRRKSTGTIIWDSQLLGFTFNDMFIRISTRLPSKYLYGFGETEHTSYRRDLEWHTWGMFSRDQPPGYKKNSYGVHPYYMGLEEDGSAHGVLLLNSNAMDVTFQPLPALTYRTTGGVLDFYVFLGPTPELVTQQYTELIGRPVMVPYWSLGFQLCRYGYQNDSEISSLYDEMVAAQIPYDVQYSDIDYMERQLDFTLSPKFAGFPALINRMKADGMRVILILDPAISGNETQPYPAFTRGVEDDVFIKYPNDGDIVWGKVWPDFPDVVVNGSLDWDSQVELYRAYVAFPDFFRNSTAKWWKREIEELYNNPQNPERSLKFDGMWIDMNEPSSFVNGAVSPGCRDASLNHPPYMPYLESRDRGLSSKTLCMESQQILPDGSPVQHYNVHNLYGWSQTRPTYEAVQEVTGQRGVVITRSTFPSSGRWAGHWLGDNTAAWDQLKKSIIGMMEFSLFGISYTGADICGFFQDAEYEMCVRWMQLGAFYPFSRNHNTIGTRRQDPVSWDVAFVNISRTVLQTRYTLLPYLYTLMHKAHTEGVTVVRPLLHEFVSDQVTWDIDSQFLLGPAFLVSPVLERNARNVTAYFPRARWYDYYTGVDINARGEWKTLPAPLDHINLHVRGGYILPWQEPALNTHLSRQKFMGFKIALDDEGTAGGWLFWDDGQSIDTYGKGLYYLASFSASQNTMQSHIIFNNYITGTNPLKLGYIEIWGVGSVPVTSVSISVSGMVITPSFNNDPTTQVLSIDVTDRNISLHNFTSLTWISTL",
  "assay": "Inhibition of recombinant human maltase glucoamylase N-terminal catalytic domain",
  "data": [
    {"smiles": "O=S(=O)([O-])O[C@@H]([C@H](O)[C@H](O)[C@H](O)CO)[C@H](O)C[S+]1C[C@@H](O)[C@H](O)[C@H]1CO", "note": "(some centres undefined)", "values": [
      {"measurement": "Ki", "value": 200, "unit": "nM"}
    ]},
    {"smiles": "O=S(=O)([O-])O[C@@H]([C@H](O)[C@@H](O)[C@@H](O)CO)[C@H](O)C[S+]1C[C@@H](O)[C@H](O)[C@H]1CO", "note": "(some centres undefined)", "values": [
      {"measurement": "Ki", "value": 100, "unit": "nM"}
    ]},
    {"smiles": "O=S(=O)([O-])O[C@@H]([C@H](O)[C@@H](O)[C@H](O)CO)[C@H](O)C[S+]1C[C@@H](O)[C@H](O)[C@H]1CO", "note": "(some centres undefined)", "values": [
      {"measurement": "Ki", "value": 130, "unit": "nM"}
    ]},
    {"smiles": "O=S(=O)([O-])O[C@@H]([C@H](O)[C@H](O)[C@@H](O)CO)[C@H](O)C[S+]1C[C@@H](O)[C@H](O)[C@H]1CO", "note": "(some centres undefined) [KOTALANOL]", "values": [
      {"measurement": "Ki", "value": 190, "unit": "nM"}
    ]}
  ]
}
